Test results from ChEMBL document CHEMBL1129308, “Design and synthesis of 2-naphthoate esters as selective dopamine D4 antagonists” (J Med Chem, 1996).

Tests used:
D(2) dopamine receptor = D(2) dopamine receptor (Homo sapiens, UniProt P14416); test: Binding affinity against cloned human Dopamine receptor D2 (long) using [125I]iodosulpiride as radioligand
D(4) dopamine receptor = molecular target: T1, D(4) dopamine receptor (Homo sapiens, UniProt P21917); test: Binding affinity against cloned human Dopamine receptor D4 using [3H]nemonapride as radioligand
T1 sequence (P21917 whole entry): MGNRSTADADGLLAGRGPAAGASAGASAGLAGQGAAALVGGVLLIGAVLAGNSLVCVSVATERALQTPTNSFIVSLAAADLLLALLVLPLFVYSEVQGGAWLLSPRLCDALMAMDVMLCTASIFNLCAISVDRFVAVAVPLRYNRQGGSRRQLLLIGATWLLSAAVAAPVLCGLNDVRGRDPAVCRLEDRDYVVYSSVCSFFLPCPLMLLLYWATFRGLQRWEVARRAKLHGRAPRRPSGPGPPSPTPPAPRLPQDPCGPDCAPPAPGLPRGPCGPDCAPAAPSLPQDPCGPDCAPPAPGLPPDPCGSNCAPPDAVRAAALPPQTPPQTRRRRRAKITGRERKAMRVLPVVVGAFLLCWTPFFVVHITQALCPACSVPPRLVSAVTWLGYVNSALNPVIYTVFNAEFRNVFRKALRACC

[1] = molecular target: Dopamine receptors; D2 & D4 (Homo sapiens) (UniProt P14416+P21917); test: Selectivity ratio for binding affinity between D4 and D2 receptor; format: protein assay
Dopamine receptors; D2 & D4 (Homo sapiens), sequence (P14416 whole entry, looked up, one chain of several): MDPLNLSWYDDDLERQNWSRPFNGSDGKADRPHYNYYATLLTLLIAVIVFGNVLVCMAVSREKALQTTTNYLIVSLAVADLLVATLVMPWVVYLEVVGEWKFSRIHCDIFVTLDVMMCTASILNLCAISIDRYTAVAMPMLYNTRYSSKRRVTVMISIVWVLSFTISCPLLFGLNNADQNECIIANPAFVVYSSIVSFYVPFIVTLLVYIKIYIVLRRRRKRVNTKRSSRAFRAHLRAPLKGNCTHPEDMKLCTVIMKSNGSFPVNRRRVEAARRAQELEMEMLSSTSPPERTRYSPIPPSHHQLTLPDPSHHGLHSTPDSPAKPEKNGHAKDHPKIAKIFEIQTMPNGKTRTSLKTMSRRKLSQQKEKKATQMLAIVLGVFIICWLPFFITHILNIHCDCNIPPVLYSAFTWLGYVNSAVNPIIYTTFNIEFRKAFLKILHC

D(2) dopamine receptor, sequence (P14416 whole entry): as the sequence (P14416 whole entry, looked up, one chain of several) above

Ki (D(2) dopamine receptor) | Ki (D(4) dopamine receptor) | Selectivity [1] | SMILES
1.58 µM | 0.0251 µM | 60 | COc1cc2ccccc2cc1OCCC1CCN(Cc2ccccc2)CC1
1 µM | 0.0316 µM | 30 | COc1cc2ccccc2cc1COCC1CCN(Cc2ccccc2)CC1
10 µM | 0.02 µM | 500 | COc1cc2ccccc2cc1C(=O)OCC1CCN(Cc2ccccc2)C1 (stereo not given)
7.94 µM | 0.00631 µM | 1260 | COc1cc2ccccc2cc1OC(=O)CC1CCN(Cc2ccccc2)CC1
0.0398 µM | 0.00398 µM | 10 | COc1cc2ccccc2cc1C(=O)NC1CCN(Cc2ccccc2)C1 (stereo not given)
0.398 µM | 0.0316 µM | 12 | COc1cc2ccccc2cc1C(=O)CCC1CCN(Cc2ccccc2)CC1
0.126 µM | 0.02 µM | 6 | COc1cc2ccccc2cc1C(=O)NCC1CCN(Cc2ccccc2)CC1
1.26 µM | 0.2 µM | 6 | COc1cc2ccccc2cc1CC(=O)CC1CCN(Cc2ccccc2)CC1
2 µM | 0.0251 µM | 80 | O=C(OCC1CCN(Cc2ccccc2)CC1)c1ccc(Cl)cc1
3.16 µM | 0.00501 µM | 630 | COc1cc2ccccc2cc1C(=O)OCC1CCN(Cc2ccccc2)CC1
